In publication PMC10177692, “Novel topoisomerase II/EGFR dual inhibitors: design, synthesis and docking studies of naphtho[2′,3′:4,5]thiazolo[3,2-a]pyrimidine hybrids as potential anticancer agents with apoptosis inducing activity” (Journal of Enzyme Inhibition and Medicinal Chemistry, 2023):
Where two headings read alike, the source gives them in different places.

Columns and labels:
A549 = test: MTT anti-proliferative assay; type: cell-based, human; details: for fold the activity of erlotinib: A549, ratio of IC50 values; for IC50: Homo sapiens, A549, MTT, 24 h, mean ± SE of three experiments, read-out: IC50 (µM) ± S.E. A549
Protocol: (§1) The culture media were supplemented with 10% heat inactivated foetal bovine serum (FBS, HyClone, Thermo Scientific) and antibiotics (100 U/ml penicillin and 100 µg/ml streptomycin, HyClone, Thermo Scientific). The cells were incubated in a humidified atmosphere containing 5% CO2 (Heracell VIOS CO2 incubator, Thermo Scientific) in air at 37 °C.
(§2) MTT reagent, at volume equal to 10% of the culture medium volume, was added to the cultured cells and to the blank wells. The culture plates were re-incubated for 2–4 h depending on cell type and density. After the incubation period, culture plates were restored from the incubator and the obtained formazan crystals were dissolved in acidified isopropanol with continuous shaking using plate shaker (MaxQ 2000, Thermo Fisher Scientific Inc., MI, USA) at room temperature. Absorbance was measured spectrophotometrically at wavelength 570 nm using a plate reader (Stat FaxR 4200, Awareness Technology, Inc., FL, USA). […] Three independent experiments were performed for each compound and Mean ± SE were calculated.

HCT-116 = test: MTT anti-proliferative assay; type: cell-based, human; details: Homo sapiens, HCT-116; MTT, 24 h, mean ± SE of three experiments; read-out: IC50 (µM) ± S.E. HCT-116
Protocol: as §1, §2

MCF-7 = test: MTT anti-proliferative assay; type: cell-based, human; details: for IC50: Homo sapiens, MCF7; for fold the activity of erlotinib: MCF-7, ratio of IC50 values
Protocol: as §1, §2

topoisomerase IIα = target: T1, topoisomerase IIα (Homo sapiens, UniProt P11388); test: Topoisomerase IIα inhibitory activity (ELISA kit); type: cell-based; details: MCF-7 cell line; for % inhibition of topoisomerase IIα activity: compounds at their IC50, compared to control
T1 construct: it decreases the concentration of topoisomerase iIα in MCF-7 cell line to 1.043 ± 0.10 ng/ml; endogenous in cells; host or cells: MCF-7
Protocol: Biotin-conjugated antibody was added to each well followed by incubation at 37 °C for 1 h, then the plates were aspirated. Avidin conjugated Horseradish Peroxidase (HRP avidin) solution was added to each well, incubated again at 37 °C for 1 h. TMB substrate was added to the wells and the plate was incubated at 37 °C for 30 min at dark place. The absorbance was read using spectrophotometer at a wavelength of 450 nm.

p53 = p53 level ELISA in MCF-7 cells; type: cell-based, human; details: for p53 FLD: MCF-7, at IC50, fold of control cells; for p53 Conc.(pg/ml): MCF-7, at IC50, control 257 ± 19.1
Protocol: p53 level was determined in MCF-7 cell line using Human p53 ELISA Kit (Sigma Aldrich, St. Louis, MO, USA). The cells were lysed using cell extraction buffer. Cell lysate was diluted with standard diluent buffer, then added to p53 monoclonal antibody pre-coated 96-wells plate. The plate incubated for 2 h at room temperature. Anti-p53 detection antibody was added to the plate and re-incubated at room temperature for 1 h. The plate washed four times using wash buffer followed by addition of anti-rabbit IgG-Horseradish Peroxidase (HRP) working solution. The plate incubated at room temperature for 30 min. Chromogen TMB (tetramethylbenzidine) was added to induce colour reaction. The absorbance of the plate was read at 450 nm using microplate reader (Bio-Rad Laboratories, Hercules, CA, USA). Three independent experiments were performed for each compound and Mean ± SE were calculated.

Bax = Bax level ELISA in MCF-7 cells; type: cell-based, human; details: for Bax Conc.(pg/ml): MCF-7, at IC50, 24 h, control 83.16 ± 6.2; for Bax FLD: MCF-7, at IC50, fold of control cells
Protocol: (§3) MCF-7 cells were cultured in DMEM supplied with 10% FBS and incubated in 5% CO2 in air at 37 °C. […] Cell lysate was diluted using standard diluent buffer over the range of assay. Bax and Bcl-2 content in the lysate was assessed using human Bax ELISA kit (DRG, USA) and Bcl-2 ELISA Kit (Zymed Laboratories, Invitrogen Immuno-detection, Canada), respectively, according to the manufacturer’s instructions for each kit. The results were expressed as Mean ± SE of three independent experiments.

Bcl-2 = Bcl-2 level ELISA in MCF-7 cells; type: cell-based, human; details: for Bcl-2 Conc.(ng/ml): MCF-7, at IC50, 24 h, control 6.56 ± 0.22; for Bcl-2 FLD: MCF-7, at IC50, fold of control cells
Protocol: as §3

caspase-7 = test: Caspase-7 ELISA in MCF-7 cells; type: cell-based, human; details: for Caspase 7 FLD: MCF-7, at IC50, fold of control; for Caspase 7 Conc.(ng/ml): MCF-7, at IC50, control 0.45 ± 0.03
Protocol: (§4) The effect of 6a, 6c and 6i hybrids on caspase-7 and −9 levels in MCF-7 cell line was measured using Human Caspase-7 ELISA Kit (BioVision Inc., Milpitas, CA 95035 USA) and Human Caspase-9 ELISA Kit (EIA-4860, DRG, USA), respectively, and according to the manufacturer’s instructions. The results were expressed as Mean ± SE of three independent experiments.

caspase-9 = test: Caspase-9 ELISA in MCF-7 cells; type: cell-based, human; details: for Caspase 9 FLD: MCF-7, at IC50, fold of control; for Caspase 9 Conc.(pg/ml): MCF-7, at IC50, control 4.51 ± 0.29
Protocol: as §4

topoisomerase II = target: T2, topoisomerase II (Homo sapiens, UniProt P11388); test: DNA topo II inhibition assay (kDNA, agarose gel); type: biochemical; details: 10 µM, with topo II
T2 construct: purchased Topogen, USA
Protocol: Using the procedure outlined in topoisomerase II Drug Screening Kit (Topogen, USA), the effect of 6a, 6c and 6i on topoisomerase II inhibition and the effectiveness of catenated/decatenated kDNA formation were examined. The reaction mixture includes 10 mM MgCl2, 50 mM Tris-HCl, 0.5 mM dithiothreitol, […]/ml bovine serum albumin, 200–300 ng of kDNA and topoisomerase II. […] After the reaction samples were incubated for 30 min at 37 °C, the reaction was stopped by adding […] of a stop buffer containing 10% (w/v) SDS and […] of 0.5 mg/ml proteinase followed by incubating the mixture for 10 min at 37 °C. The reaction mixture was separated by 1% agarose gel and examined after being stained with ethidium bromide.

EGFR = target: T3, EGFR (Homo sapiens, UniProt P00533); test: EGFR kinase assay kit; type: biochemical; details: mean ± SE; read-out: EGFR inhibitory activity IC50
T3 construct: purchased BPS Bioscience, San Diego, CA, USA
Protocol: The kinase activity of EGFR was assessed for 6a, 6c and 6i hybrids using EGFR kinase assay kit (BPS Bioscience, San Diego, CA, USA) based on the manufacturer’s instructions. Three independent experiments were performed for each compound and Mean ± SE were calculated.

[1] = MTT, 24 h, mean ± SE of three experiments, read-out: IC50 (µM) ± S.E. MCF-7
[2] = MCF-7, concentration used for treatment, read-out: IC50 (Table 2)
[3] = MCF-7, concentration used for treatment, read-out: IC50 (Table 3)

T1 sequence (P11388 whole entry): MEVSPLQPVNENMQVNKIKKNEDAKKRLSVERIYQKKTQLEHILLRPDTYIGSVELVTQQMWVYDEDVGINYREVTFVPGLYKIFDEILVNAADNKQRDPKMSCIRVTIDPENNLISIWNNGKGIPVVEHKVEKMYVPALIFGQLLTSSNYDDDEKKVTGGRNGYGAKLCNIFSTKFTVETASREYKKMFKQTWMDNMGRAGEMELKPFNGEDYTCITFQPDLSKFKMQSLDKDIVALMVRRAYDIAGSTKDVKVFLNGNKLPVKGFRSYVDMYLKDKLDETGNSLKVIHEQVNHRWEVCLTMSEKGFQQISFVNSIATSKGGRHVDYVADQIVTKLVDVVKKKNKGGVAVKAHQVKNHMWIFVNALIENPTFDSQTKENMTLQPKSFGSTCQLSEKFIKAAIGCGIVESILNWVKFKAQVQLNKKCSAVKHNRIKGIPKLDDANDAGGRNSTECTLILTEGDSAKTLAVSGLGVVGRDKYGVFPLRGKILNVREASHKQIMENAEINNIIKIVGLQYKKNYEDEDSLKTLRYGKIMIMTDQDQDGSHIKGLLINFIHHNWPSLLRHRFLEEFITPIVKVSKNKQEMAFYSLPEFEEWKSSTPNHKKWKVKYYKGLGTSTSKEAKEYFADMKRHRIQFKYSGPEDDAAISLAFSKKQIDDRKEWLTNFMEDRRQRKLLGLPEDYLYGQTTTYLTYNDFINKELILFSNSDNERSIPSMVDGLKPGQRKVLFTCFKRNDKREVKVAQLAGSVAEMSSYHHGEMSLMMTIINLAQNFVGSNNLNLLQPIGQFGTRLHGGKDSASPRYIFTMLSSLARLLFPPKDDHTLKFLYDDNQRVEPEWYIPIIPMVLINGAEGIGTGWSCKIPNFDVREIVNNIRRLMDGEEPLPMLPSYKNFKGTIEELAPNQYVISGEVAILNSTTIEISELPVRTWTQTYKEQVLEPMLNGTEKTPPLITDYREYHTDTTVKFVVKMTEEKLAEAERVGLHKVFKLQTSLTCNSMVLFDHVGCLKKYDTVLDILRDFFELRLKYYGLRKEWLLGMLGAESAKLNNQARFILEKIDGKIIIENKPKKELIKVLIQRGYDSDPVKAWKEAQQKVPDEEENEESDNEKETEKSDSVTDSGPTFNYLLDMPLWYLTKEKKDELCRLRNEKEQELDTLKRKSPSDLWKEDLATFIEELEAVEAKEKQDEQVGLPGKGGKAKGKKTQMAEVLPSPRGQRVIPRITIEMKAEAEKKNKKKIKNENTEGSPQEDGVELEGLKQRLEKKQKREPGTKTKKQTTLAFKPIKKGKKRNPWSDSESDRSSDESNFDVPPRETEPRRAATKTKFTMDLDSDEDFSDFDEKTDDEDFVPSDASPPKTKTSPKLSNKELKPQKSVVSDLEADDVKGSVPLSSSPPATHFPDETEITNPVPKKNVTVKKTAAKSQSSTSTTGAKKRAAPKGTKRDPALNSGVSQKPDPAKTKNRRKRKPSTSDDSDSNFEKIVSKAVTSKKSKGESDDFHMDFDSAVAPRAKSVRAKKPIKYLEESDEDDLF
T3 sequence (P00533 25-1210): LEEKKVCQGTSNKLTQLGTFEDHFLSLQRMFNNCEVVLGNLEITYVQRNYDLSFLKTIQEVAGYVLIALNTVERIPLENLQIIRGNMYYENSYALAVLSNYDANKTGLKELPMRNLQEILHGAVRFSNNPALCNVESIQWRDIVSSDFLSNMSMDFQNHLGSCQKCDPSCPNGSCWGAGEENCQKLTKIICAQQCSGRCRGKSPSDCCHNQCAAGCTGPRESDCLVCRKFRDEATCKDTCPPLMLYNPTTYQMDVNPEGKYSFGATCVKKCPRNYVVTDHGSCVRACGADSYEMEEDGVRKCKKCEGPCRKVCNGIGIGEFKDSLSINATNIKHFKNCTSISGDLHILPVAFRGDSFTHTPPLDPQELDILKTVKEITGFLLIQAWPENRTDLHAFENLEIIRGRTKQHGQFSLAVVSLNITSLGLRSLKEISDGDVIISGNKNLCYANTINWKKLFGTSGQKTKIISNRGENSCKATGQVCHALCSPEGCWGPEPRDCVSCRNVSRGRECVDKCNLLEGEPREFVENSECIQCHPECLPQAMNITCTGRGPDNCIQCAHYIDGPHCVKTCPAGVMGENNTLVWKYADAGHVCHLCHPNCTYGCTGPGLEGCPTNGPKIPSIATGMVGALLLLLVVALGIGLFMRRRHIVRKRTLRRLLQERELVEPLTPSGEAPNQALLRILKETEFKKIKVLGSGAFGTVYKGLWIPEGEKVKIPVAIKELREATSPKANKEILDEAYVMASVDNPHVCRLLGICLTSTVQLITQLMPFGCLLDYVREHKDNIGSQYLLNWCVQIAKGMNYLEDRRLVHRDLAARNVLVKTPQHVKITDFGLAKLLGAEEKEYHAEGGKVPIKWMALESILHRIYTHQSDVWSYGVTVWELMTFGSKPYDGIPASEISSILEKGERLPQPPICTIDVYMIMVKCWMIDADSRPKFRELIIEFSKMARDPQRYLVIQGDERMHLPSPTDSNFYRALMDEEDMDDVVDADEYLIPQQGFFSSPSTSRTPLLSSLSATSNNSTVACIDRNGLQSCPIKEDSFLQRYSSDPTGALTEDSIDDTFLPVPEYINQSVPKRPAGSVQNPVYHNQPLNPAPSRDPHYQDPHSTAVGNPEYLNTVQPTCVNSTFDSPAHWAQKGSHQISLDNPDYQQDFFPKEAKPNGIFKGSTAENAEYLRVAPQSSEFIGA
T2 sequence (P11388 whole entry): as the sequence (P11388 whole entry) above

N#Cc1c(-c2ccc(Br)cc2)nc2sc3c(n2c1=O)C(=O)c1ccccc1C3=O [Compound 6d, 2–(4-Bromophenyl)-4,6,11-trioxo-6,11-dihydro-4H-naphtho[’',’':4,5]thiazolo-[3,2-a]pyrimidine-3-carbonitrile]
fold the activity of erlotinib (A549): 1.60 fold | IC50 (A549): 3.25 ± 0.31 µM | IC50 (HCT-116): 11.77 ± 0.11 µM | IC50 (MCF-7; [1]): 5.66 ± 0.29 µM | fold the activity of erlotinib (MCF-7): 1.28 fold

COc1cccc2c1C(=O)c1c(O)c3c(c(O)c1C2=O)C[C@@](O)(C(=O)CO)C[C@@H]3O[C@H]1C[C@H](N)[C@H](O)[C@H](C)O1 [Dox, Doxorubicin, reference compound]
IC50 (A549): 4.95 ± 0.29 µM | IC50 (HCT-116): 6.78 ± 0.44 µM | IC50 (MCF-7; [2]): 5.62 µM | IC50 (MCF-7; [3]): 5.62 µM | IC50 (MCF-7; [1]): 5.62 ± 0.31 µM | % inhibition of topoisomerase IIα activity (topoisomerase IIα): 65.92% | concentration of topoisomerase IIα (topoisomerase IIα; compounds at their IC50, control 3.663 ± 0.09 ng/ml): 1.248 ± 0.09 ng/mL | p53 FLD (p53): 4 fold | p53 Conc.(pg/ml) (p53): 1051 ± 22.6 pg/mL | Bax Conc.(pg/ml) (Bax): 511.2 ± 6.5 pg/mL | Bax FLD (Bax): 6.14 fold | Bcl-2 Conc.(ng/ml) (Bcl-2): 1.66 ± 0.03 ng/mL | Bcl-2 FLD (Bcl-2): 0.25 fold | Caspase 7 FLD (caspase-7): 23.2 fold | Caspase 7 Conc.(ng/ml) (caspase-7): 10.44 ± 0.92 ng/mL | Caspase 9 FLD (caspase-9): 6.53 fold | Caspase 9 Conc.(pg/ml) (caspase-9): 29.48 ± 0.25 pg/mL

COc1ccc(-c2nc3sc4c(n3c(=O)c2C#N)C(=O)c2ccccc2C4=O)cc1OC [Compound 6c, 2–(3,4-Dimethoxyphenyl)-4,6,11-trioxo-6,11-dihydro-4H-naphtho[’',’':4,5]-thiazolo[3,2-a]pyrimidine-3-carbonitrile]
IC50 (A549): 3.65 ± 0.25 µM | IC50 (HCT-116): 3.66 ± 0.39 µM | IC50 (MCF-7; [2]): 4.42 µM | IC50 (MCF-7; [3]): 4.42 µM | IC50 (MCF-7; [1]): 4.42 ± 0.35 µM | % inhibition of topoisomerase IIα activity (topoisomerase IIα): 11.30% | linear DNA formation from catenated kDNA (topoisomerase II): the production of linear DNA was not noticed | IC50 (EGFR): 0.0447 ± 0.00082 µM | p53 FLD (p53): 2.6 fold | p53 Conc.(pg/ml) (p53): 678 ± 42.3 pg/mL | Bax Conc.(pg/ml) (Bax): 372.7 ± 9.4 pg/mL | Bax FLD (Bax): 4.48 fold | Bcl-2 Conc.(ng/ml) (Bcl-2): 2.17 ± 0.36 ng/mL | Bcl-2 FLD (Bcl-2): 0.33 fold | Caspase 7 FLD (caspase-7): 4.20 fold | Caspase 7 Conc.(ng/ml) (caspase-7): 1.89 ± 0.02 ng/mL | Caspase 9 FLD (caspase-9): 3.03 fold | Caspase 9 Conc.(pg/ml) (caspase-9): 13.68 ± 0.42 pg/mL

C#Cc1cccc(Nc2ncnc3cc(OCCOC)c(OCCOC)cc23)c1 [Erlotinib, erlotinib, reference compound]
IC50 (A549): 5.19 ± 0.36 µM | IC50 (HCT-116): 8.64 ± 0.18 µM | IC50 (MCF-7; [1]): 7.26 ± 0.2 µM

CN(C)c1ccc(-c2nc3sc4c(n3c(=O)c2C#N)C(=O)c2ccccc2C4=O)cc1 [Compound 6h, 2–(4-(Dimethylamino)phenyl)-4,6,11-trioxo-6,11-dihydro-4H-naphtho-[’',’':4,5]thiazolo[3,2-a]pyrimidine-3-carbonitrile]
IC50 (A549): 21.2 ± 1.23 µM | IC50 (HCT-116): 56.2 ± 4.11 µM | IC50 (MCF-7; [1]): 37.9 ± 2.25 µM

N#Cc1c(-c2ccc(Cl)cc2)nc2sc3c(n2c1=O)C(=O)c1ccccc1C3=O [Compound 6e, 2–(4-Chlorophenyl)-4,6,11-trioxo-6,11-dihydro-4H-naphtho[’',’':4,5]thiazolo-[3,2-a]pyrimidine-3-carbonitrile]
IC50 (A549): 5.72 ± 0.37 µM | IC50 (HCT-116): 9.81 ± 0.65 µM | IC50 (MCF-7; [1]): 5.14 ± 0.32 µM

COc1cc(-c2nc3sc4c(n3c(=O)c2C#N)C(=O)c2ccccc2C4=O)cc(OC)c1OC [Compound 6f, 4,6,11-Trioxo-2–(3,4,5-trimethoxyphenyl)-6,11-dihydro-4H-naphtho[’',’':4,5]-thiazolo[3,2-a]pyrimidine-3-carbonitrile]
IC50 (A549): 38.3 ± 3.21 µM | IC50 (HCT-116): 26.8 ± 1.78 µM | IC50 (MCF-7; [1]): 29.1 ± 1.56 µM

N#Cc1c(-c2ccccc2)nc2sc3c(n2c1=O)C(=O)c1ccccc1C3=O [Compound 6g, 4,6,11-Trioxo-2-phenyl-6,11-dihydro-4H-naphtho[’',’':4,5]thiazolo[3,2-a]-pyrimidine-3-carbonitrile]
IC50 (A549): 42.2 ± 2.19 µM | IC50 (HCT-116): 9 ± 0.66 µM | IC50 (MCF-7; [1]): 13.8 ± 1.12 µM

N#Cc1c(-c2ccc(F)cc2)nc2sc3c(n2c1=O)C(=O)c1ccccc1C3=O [Compound 6b, 2–(4-Fluorophenyl)-4,6,11-trioxo-6,11-dihydro-4H-naphtho[’',’':4,5]thiazolo-[3,2-a]pyrimidine-3-carbonitrile]
fold the activity of erlotinib (A549): 1.23 fold | IC50 (A549): 4.2 ± 0.41 µM | IC50 (HCT-116): 11.5 ± 0.12 µM | IC50 (MCF-7; [1]): 4.78 ± 0.36 µM | fold the activity of erlotinib (MCF-7): 1.52 fold
